Here are results for 23 molecules from publication PMC10653080, “Intermolecular Interactions, Solute Descriptors, and Partition Properties of Neutral Per- and Polyfluoroalkyl Substances (PFAS)” (Environmental Science & Technology, 2023).

Data set [1] is described as follows: Octanol/water partition coefficient (Kow), shared-headspace method. It counts as physicochemical. The conditions noted are these: 25 °C; shared-headspace method (SH). The method, then: Kow was measured for nine PFAS (Table 2) to supplement the data set for descriptor determination. The nine PFAS were selected based on measurement feasibility and structural diversity. The shared-headspace or batch partition method was used as described previously.[5] Details of the methods are given in SI-1.

Data set [2] can be described thus: PP-LFER solute descriptor determination from GC retention and partition coefficient data. As to conditions: for Solute descriptor S (dipolarity/polarizability parameter): final adjusted value, shared within a PFAS group. It counts as physicochemical. An excerpt:
The GC columns used were, from low to high polarity, HP-5ms Ultra Inert (poly[5% phenyl/95% methyl]siloxane equivalent; Agilent Technologies, Santa Clara, CA), DB-200 (poly[35% trifluoropropyl/65% methyl]siloxane; Agilent Technologies), DB-225ms (poly[50% cyanopropylphenyl/50% methyl]siloxane equivalent; Agilent Technologies), and SolGel-WAX (polyethylene glycol; Trajan, Ringwood, Australia). Column dimensions were all 30 m × 0.25 mm i.d. with a coating thickness of 0.25 μm.
The method for GC retention time measurements follows that of a previous study.[18] Briefly, a 7890A/5975C GC/MS instrument (Agilent Technologies) equipped with an MPS2 autosampler and CIS4 injector (Gerstel, Mülheim an der Ruhr, Germany) was used for all measurements. For each column, isothermal retention times were measured at four temperatures in the range of 30–120 °C to cover all target compounds. The temperature at the injector and transfer line was fixed at 120 °C. The carrier gas was He at a flow rate of 1.2 mL/min. Compounds were introduced into the GC by injecting either headspace (100–250 μL) above the pure compound or solution in acetone (1 μL). Split injections were performed with a split ratio of 20–250. Column dead time (t0) was determined by injecting air and measuring Ar (m/z 40). From the measured retention time (t), the retention factor (k) was calculated as k = (t–t0)/t0. Measurements with t < t0 + 0.1 min were considered too short and discarded. For each column and temperature, k values were obtained for 29–52 PFAS and 29–48 reference compounds.
The standard procedure for solute descriptor determination was as follows. First, the system parameters in eq 1 were calibrated for each column (or partition system) and temperature by MLR using log k (or log K) data and solute descriptors for reference compounds. Dimethylformamide, 1-pentylamine, dimethylsulfoxide, and dodecamethylcyclohexasiloxane (D6) were removed from the log k data sets, because they frequently appeared as outliers (>3 SD) of the PP-LFER model fit. Reference data sets for hexadecane/water partition coefficients (KHxd/w),[21]Kow,[22] and octanol/air partition coefficients (Koa)[23] were taken from the cited references and amended with data for organosilicon compounds.[24],[25] Similar to PFAS, organosilicon compounds have weak van der Waals interaction properties[9] and it may be beneficial to include them in reference data sets. The solute descriptors for PFAS were then back-calculated by using the calibrated PP-LFER equations. Of the five descriptors, V can be calculated from the molecular structure[26] (note: the fragment value for F from Goss et al.[11] was used), and L was available for the PFAS studied.[18] Thus, the left side of eq 2 was known, and MLR was performed to obtain S, A, and B on the right side. [drawing 2] 2 To determine the three descriptors, a minimum of three k and K data are required for a given PFAS compound. The data used here were: k measured for 60 PFAS in this study, KHxd/w for 21 PFAS,[5]Kow for 12 PFAS (see the Results and Discussion section), and Koa for 3 PFAS.[11]
Key to the accurate determination of the polar interaction descriptors is the availability of K data for partition systems with water as a partition phase because water is a strong H-bond donor and acceptor phase and thus the corresponding K values are sensitive to the H-bonding properties of the solute.[27] In particular, at least one solvent/water or air/water partition coefficient is required to determine B because there is no commonly used GC phase that is a significant H-bond donor. In the data set, KHxd/w is sensitive to both A and B and Kow is sensitive to B. However, KHxd/w and Kow data are not available for all PFAS. To increase the number of PFAS for which descriptors can be determined, the following assumptions were made. […]

The mark [3] stands for this setting: 25 °C, updated in the iterative calculation.

Like-named read-outs stand apart in the source and are kept apart here.

As to `OCCCC(F)(F)C(F)(F)C(F)(F)F` [3:3 FTOH, 4,4,5,5,6,6,6-Heptafluorohexan-1-ol], the “Measured Log Kow, Mean ± SD” value in data set [1] was found to be 2.46 ± 0.00. The “Solute descriptor L (logarithmic hexadecane/air partition coefficient, KHxd/air)” value in data set [2] (setting [3]) is reported as 2.710. Further, the “Solute descriptor S (dipolarity/polarizability parameter)” value in data set [2] was 0.53.
Consider `CCNS(=O)(=O)C(F)(F)C(F)(F)C(F)(F)C(F)(F)C(F)(F)C(F)(F)C(F)(F)C(F)(F)F` [EtFOSA, N-Ethylperfluorooctanesulfonamide], for which, in data set [2], the “Solute descriptor L (logarithmic hexadecane/air partition coefficient, KHxd/air)” value is given as 4.967 and the “Solute descriptor S (dipolarity/polarizability parameter)” value turned out to be 0.88.
On to `CCN(CCO)S(=O)(=O)C(F)(F)C(F)(F)C(F)(F)C(F)(F)C(F)(F)C(F)(F)C(F)(F)C(F)(F)F` [EtFOSE, N-Ethylperfluorooctanesulfonamidoethanol], for which, in data set [2], the “Solute descriptor L (logarithmic hexadecane/air partition coefficient, KHxd/air)” value came to 6.253 and the “Solute descriptor S (dipolarity/polarizability parameter)” value is given as 1.00.
As for `FC(F)(F)C(F)(I)OC(F)(F)C(F)(F)C(F)(F)F` (centres unmarked) [FE-E1-I, 1-(Heptafluoropropoxy)-1,2,2,2-tetrafluoro-1-iodoethane], the “Solute descriptor L (logarithmic hexadecane/air partition coefficient, KHxd/air)” value in data set [2] (setting [3]) was 1.937. For the same molecule, in data set [2], the “Solute descriptor S (dipolarity/polarizability parameter)” value amounted to 0.06.
For `FC(OC(F)(F)C(F)(OC(F)(F)C(F)(OC(F)(F)C(F)(F)C(F)(F)F)C(F)(F)F)C(F)(F)F)C(F)(F)F` (centres unmarked) [FE-E3, 1,1,1,2,2,3,3-Heptafluoro-3-[(1,1,1,2,3,3-hexafluoro-3-{[1,1,1,2,3,3-hexafluoro-3-(1,2,2,2-tetrafluoroethoxy)-2-propanyl]oxy}-2-propanyl)oxy]propane], in data set [2], the “Solute descriptor L (logarithmic hexadecane/air partition coefficient, KHxd/air)” value is 1.899 and the “Solute descriptor S (dipolarity/polarizability parameter)” value is given as -0.33.
For the molecule `FC(OC(F)(F)C(F)(OC(F)(F)C(F)(OC(F)(F)C(F)(OC(F)(F)C(F)(F)C(F)(F)F)C(F)(F)F)C(F)(F)F)C(F)(F)F)C(F)(F)F` (centres unmarked) [FE-E4, 1,1,1,2,4,4,5,7,7,8,10,10,11,13,13,14,14,15,15 ,15-Eicosafluoro-5,8,11-tris(trifluoromethyl)-3,6,9,12-tetraoxapentadecane], in data set [2], the “Solute descriptor L (logarithmic hexadecane/air partition coefficient, KHxd/air)” value is 2.542 and the “Solute descriptor S (dipolarity/polarizability parameter)” value is reported as -0.55.
With `FC(OC(F)(F)C(F)(OC(F)(F)C(F)(OC(F)(F)C(F)(OC(F)(F)C(F)(OC(F)(F)C(F)(F)C(F)(F)F)C(F)(F)F)C(F)(F)F)C(F)(F)F)C(F)(F)F)C(F)(F)F` (centres unmarked) [FE-E5, 1,1,1,2,4,4,5,7,7,8,10,10,11,13,13,14,16,16,17 ,17,18,18,18-Tricosafluoro-5,8,11,14-tetrakis(trifluoromethyl)-3,6,9,12,15-pentaoxaoctadecane], in data set [2], the “Solute descriptor L (logarithmic hexadecane/air partition coefficient, KHxd/air)” value was determined as 3.128 and the “Solute descriptor S (dipolarity/polarizability parameter)” value is -0.81.
In the case of `CNS(=O)(=O)C(F)(F)C(F)(F)C(F)(F)C(F)(F)C(F)(F)C(F)(F)F` [MeFHxSA, N-Methylperfluorohexanesulfonamide], the “Solute descriptor L (logarithmic hexadecane/air partition coefficient, KHxd/air)” value in data set [2] (setting [3]) is given as 4.135. The “Solute descriptor S (dipolarity/polarizability parameter)” value in data set [2] was 0.88.
The like results for `CNS(=O)(=O)C(F)(F)C(F)(F)C(F)(F)C(F)(F)C(F)(F)C(F)(F)C(F)(F)C(F)(F)F` [MeFOSA, N-Methylperfluorooctanesulfonamide] were, in that order, 4.703 and 0.88.
Turning to `CN(CCO)S(=O)(=O)C(F)(F)C(F)(F)C(F)(F)C(F)(F)C(F)(F)C(F)(F)C(F)(F)C(F)(F)F` [MeFOSE, N-Methylperfluorooctanesulfonamidoethanol], in data set [2], the “Solute descriptor L (logarithmic hexadecane/air partition coefficient, KHxd/air)” value is 5.909 and the “Solute descriptor S (dipolarity/polarizability parameter)” value was found to be 1.00.
Turning to `FC(F)(F)C(F)(F)C(F)(F)C(F)(F)I` [PFBI, Perfluorobutyl iodide], in data set [2] (setting [3]), the “Solute descriptor L (logarithmic hexadecane/air partition coefficient, KHxd/air)” value is recorded as 1.939. Also, the “Solute descriptor S (dipolarity/polarizability parameter)” value in data set [2] is 0.07.
The like results for `O=S(=O)(F)C(F)(F)C(F)(F)C(F)(F)C(F)(F)F` [PFBSF, Perfluorobutanesulfonyl fluoride] were, in that order, 1.278 and 0.16.
As for `FC(F)(F)C(F)(F)C(F)(F)C(F)(F)C(F)(F)C(F)(F)C(F)(F)C(F)(F)C(F)(F)C(F)(F)I` [PFDI, Perfluorodecyl iodide], in data set [2], the “Solute descriptor L (logarithmic hexadecane/air partition coefficient, KHxd/air)” value worked out at 3.623 and the “Solute descriptor S (dipolarity/polarizability parameter)” value worked out at 0.07.
The like results for `FC(F)(F)C(F)(F)C(F)(F)C(F)(F)C(F)(F)C(F)(F)C(F)(F)C(F)(F)C(F)(F)C(F)(F)C(F)(F)C(F)(F)F` [PFDoD, Perfluorododecane] were, in that order, 2.362 and -0.19.
As to `FC(F)(F)C(F)(F)C(F)(F)C(F)(F)C(F)(F)C(F)(F)C(F)(F)I` [PFHpI, Perfluoroheptyl iodide], the “Solute descriptor L (logarithmic hexadecane/air partition coefficient, KHxd/air)” value in data set [2] (setting [3]) is recorded as 2.792. Besides, the “Solute descriptor S (dipolarity/polarizability parameter)” value in data set [2] came to 0.07.
The like results for `FC(F)(F)C(F)(F)C(F)(F)C(F)(F)C(F)(F)C(F)(F)I` [PFHxI, Perfluorohexyl iodide] were, in that order, 2.508 and 0.07.
The like results for `NS(=O)(=O)C(F)(F)C(F)(F)C(F)(F)C(F)(F)C(F)(F)C(F)(F)F` [PFHxSA, Perfluorohexanesulfonamide] were, in that order, 4.189 and 0.96.
The like results for `FC(F)(F)C(F)(F)C(F)(F)C(F)(F)C(F)(F)C(F)(F)C(F)(F)C(F)(F)C(F)(F)F` [PFN, Perfluorononane] were, in that order, 1.571 and -0.19.
Regarding `FC(F)(F)C(F)(F)C(F)(F)C(F)(F)C(F)(F)C(F)(F)C(F)(F)C(F)(F)I` [PFOI, Perfluorooctyl iodide], the “Solute descriptor L (logarithmic hexadecane/air partition coefficient, KHxd/air)” value in data set [2] (setting [3]) is reported as 3.068. Besides, the “Solute descriptor S (dipolarity/polarizability parameter)” value in data set [2] is recorded as 0.07.
As for `NS(=O)(=O)C(F)(F)C(F)(F)C(F)(F)C(F)(F)C(F)(F)C(F)(F)C(F)(F)C(F)(F)F` [PFOSA, Perfluorooctanesulfonamide], in data set [2], the “Solute descriptor L (logarithmic hexadecane/air partition coefficient, KHxd/air)” value turned out to be 4.744 and the “Solute descriptor S (dipolarity/polarizability parameter)” value was 0.96.
The like results for `C=Cc1ccc(C(F)(F)C(F)(F)C(F)(F)C(F)(F)C(F)(F)C(F)(F)C(F)(F)C(F)(F)F)cc1` [PFOSt, 4-(Perfluorooct-1-yl)styrene] were, in that order, 5.645 and 0.32.
`FC(F)(F)C(F)(F)C(F)(F)C(F)(F)N(C(F)(F)C(F)(F)C(F)(F)C(F)(F)F)C(F)(F)C(F)(F)C(F)(F)C(F)(F)F` [PFTBA, Perfluorotributyl amine]: in data set [2] (setting [3]), the “Solute descriptor L (logarithmic hexadecane/air partition coefficient, KHxd/air)” value is 2.302. For the same molecule, the “Solute descriptor S (dipolarity/polarizability parameter)” value in data set [2] is given as -0.23.
The like results for `FC(F)(F)C(F)(F)C(F)(F)N(C(F)(F)C(F)(F)C(F)(F)F)C(F)(F)C(F)(F)C(F)(F)F` [PFTPrA, Perfluorotripropyl amine] were, in that order, 1.521 and -0.26.
